Assay results: PubChem BioAssay (NCI)
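Growth conditions: 96-well plates. Treatment: test compound, 48 hours, 5 concentrations. Analysis: linear interpolation between bracketing concentrations; unreached endpoints set to highest concentration. The concentration for full growth arrest is given as TGI.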

Tests used:
Experiment in all cases: DTP human tumour cell line panel, 48 h
U251 CNS = tested on: U251 CNS
HCT-15 colon = tested on: HCT-15 colon
COLO 205 colon = tested on: COLO 205 colon
OVCAR-4 ovarian = tested on: OVCAR-4 ovarian
SF-539 CNS = tested on: SF-539 CNS
MALME-3M melanoma = tested on: MALME-3M melanoma
HOP-92 NSCLC = tested on: HOP-92 NSCLC
RXF 393 renal = tested on: RXF 393 renal
MDA-MB-435 = tested on: MDA-MB-435
A498 renal = tested on: A498 renal

SMILES	TGI (U251 CNS) [µM]	TGI (HCT-15 colon) [µM]	TGI (COLO 205 colon) [µM]	TGI (OVCAR-4 ovarian) [µM]	TGI (SF-539 CNS) [µM]	TGI (MALME-3M melanoma) [µM]	TGI (HOP-92 NSCLC) [µM]	TGI (RXF 393 renal) [µM]	TGI (MDA-MB-435) [µM]	TGI (A498 renal) [µM]
CC1(C)OCC(COC(=O)NCn2cc(-c3ccccc3)nn2)O1 (stereo not drawn)	> 100	> 100	> 100	> 100	> 100	> 100	> 100	–	–	–
CC(=O)Nc1ccc(-c2nnc(SCC(=O)Nc3cccc([N+](=O)[O-])c3)o2)cc1	29.3	46.2	33.8	25.3	31.4	23.9	35.3	25.7	–	–
COC(=O)c1c(O)ccc2c1c1c(n2Cc2ccccc2OC)C(=O)c2ccccc2C1	> 100	> 100	30	87.9	> 100	> 100	–	88.1	> 100	> 100
Cc1cc2c(c(C(=O)NCCC(=O)N[C@@H](C)C(=O)OCc3ccccc3)c1)Oc1c(cc(C)cc1C(=O)NCCC(=O)N[C@@H](C)C(=O)OCc1ccccc1)S2	> 100	> 100	> 100	> 100	–	> 100	–	> 100	> 100	> 100
CCCCCCCCCCCCCCCCCCOc1ccc(/C=C/C2=[N+](CCCl)CCO2)cc1	> 100	> 100	> 100	> 100	> 100	> 100	> 100	–	> 100	> 100
COc1ccc2c(c1)CC1(O)COc3cc(OC)ccc3C1O2 (stereo not drawn)	> 100	> 100	> 100	> 100	> 100	> 100	> 100	–	> 100	> 100
COc1ccc(/C=N\NC(=O)Nc2cccc3ccccc23)cc1	36.5	> 100	> 100	43.2	33.3	> 100	42.1	–	> 100	51.6
CC(C)(C)c1cc(/C=C/C(=O)CC(=O)/C=C/c2cc(C(C)(C)C)c(O)c(C(C)(C)C)c2)cc(C(C)(C)C)c1O	> 50	> 50	> 50	> 50	> 50	–	–	> 50	> 50	–
COC12OC3CC4(C)C(=CC3OC(OC(C)C1O)C2O)CCC1C4CCC2(C)C(c3ccc(=O)oc3)CCC12O (stereo not drawn)	0.00277	0.00553	–	0.00199	0.00167	0.00391	0.0347	0.0116	0.00564	0.0144
O=c1oc2c/c(=C\c3ccccc3)c(=O)c3cccc1c3-2	37.2	> 100	> 100	–	67.1	52.7	41.6	72.6	51.7	> 100
O=C(Cn1c(=O)oc2ccc(C(=O)c3ccccc3Cl)cc21)c1ccc([N+](=O)[O-])cc1	> 100	65.4	39.6	> 100	65.9	69.5	> 100	–	46.6	> 100
